Data set [1] deals with HeLa cells. Description: Photo-induced endosomal release (fluorescence imaging). It counts as cell-based, human. On the procedure:
(§1) HeLa (human cervical adenocarcinoma), COS-7 (SV40 transformed African green monkey kidney fibroblast-like cell line) were obtained from ATCC. COLO 316 (human ovarian carcinoma) were obtained from Robert Burghardt (Department of Veterinary Integrative Biosciences, Texas A&M University). Cells were cultured in DMEM supplemented with 10% fetal bovine serum (FBS) and maintained at 37°C in a humidified environment with 5% CO2. Cells were plated in 8-well dishes so that the cells were 70% confluent after 24 h, washed 3 times with L-15 media, incubated with 3 to 10 µM peptides at 37°C for 1 h, washed 3 times with L-15, and imaged. Alternatively, cells were incubated in L-15 at 4°C to inhibit the endocytic uptake of peptides. In this case, cells were imaged with the peptide still present in solution and the low temperature was maintained for the entire duration of imaging. For photosensitization, cells were exposed to light (λex = 560±20 nm) for the indicated time points. Plasma membrane disruption was detected by addition of the cell-impermeable DNA stain SYTOX Blue (5 µM) during or after photosensitization.
Ten to twenty images were acquired for each experiment.
The effect of light irradiation on cells that have endocytosed TMR-TAT was first investigated. HeLa cells were incubated in the presence of TMR-TAT (3 µM) for 1 hour at 37°C. After washing the cells, the sample was placed on a microscope and the cellular distribution of the peptide was assessed by fluorescence imaging. […] Within seconds, the content of many endosomes was released into the cell and the peptides were distributed throughout the cell. The peptide also accumulated at the nucleoli, a known effect of TAT [7]. […] The viability of non-irradiated cells was, in contrast, not affected by TMR-TAT (Fig. 2B); we found the cytotoxicity of the peptide to be negligible in the absence of light at concentrations up to 25 µM (supporting information Fig. S1).

The subject of data set [2] is HeLa cells. Description: Photosensitization of extracellular peptide at 4°C (endocytosis blocked). It counts as cell-based, human. To be noted: 3 µM, 4°C to block endocytosis, irradiated at 560 nm with compound still in the media. On the procedure:
as §1
It is therefore possible that the endosomal release observed in the experiments of Figure 1 might be necessary to cause cell death. To investigate whether this is the case, we examined if light-induced cell-death could be observed when the peptides were only localized at the plasma membrane of cells. For these experiments, HeLa cells were first incubated with the peptides (3 µM) at 4°C to block endocytosis. Cells were then irradiated with the peptides still present in the media (the peptide is not retained at the plasma membrane when cells are washed). […] Cells were then washed and observed by fluorescence imaging. […] On the other hand, the membrane damage and cell death obtained after TMR-TAT photosensitization were also observed when hematoporphyrin (HP) or hematoporphyrin derivative (HPD) were used (Fig. 4B). […]

The test system of data set [3] is red blood cells (RBCs). The data set is classed as cell-based. The method, then:
Supplementary file pone.0017732.s005.tif: Figure S5 A) Photohemolysis of RBCs with TMR-TAT. Short light exposure tat 560 nm to RBCs incubated with TMR-TAT (3 µM) causes lysis and formation of ghost cells as observed by bright field imaging. Lysis of more than 90% of the cells can be achieved when light exposure is increased. Initially, the ghosts formed appear to have a constant diameter as shown in the images corresponding to exposure at 20 J/cm^2 and 60 J/cm^2. As light exposure is increased, the ghosts shrink to a much smaller diameter (120 J/cm^2 image). This shrinkage was not observed when the ghosts formed by irradiation with 60 J/cm^2 of light were incubated without additional light irradiation (data not shown). […] The RBCs were then spun down at low speed and the supernatant was removed from the pelleted cells. Cells were rapidly washed with cold PBS (4°C) and spun down twice. Images are the bright field and TMR confocal fluorescence images before and after washing of the RBCs. During incubation, the interior of RBCs display a dark contrast when compared to the fluorescent peptide present in solution. After washing the cells, no appreciable TMR fluorescence could be detected. It is important to note that RBCs have a weak autofluorescence signal in the TMR channel. […]

Entries after “also recorded” stand apart in the source; their conditions may differ. Where two headings read alike, the source gives them in different places.

For the compound `CN(C)c1ccc2c(c1)Oc1cc(N(C)C)ccc1C21OC(=O)c2cc(C(=O)NCC(=O)N[C@@H](CCCNC(=N)N)C(=O)N[C@@H](CCCCN)C(=O)N[C@@H](CCCCN)C(=O)N[C@@H](CCCNC(=N)N)C(=O)N[C@@H](CCCNC(=N)N)C(=O)N[C@@H](CCC(N)=O)C(=O)N[C@@H](CCCNC(=N)N)C(=O)N[C@@H](CCCNC(=N)N)C(=O)N[C@@H](CCCNC(=N)N)C(=O)NCC(N)=O)ccc21` [TMR-TAT], the “endosomal release on exposure to light of wavelengths not absorbed by TMR” value in data set [1] (e.g. 436 or 470 nm) is “No endosomal release”. Besides, in data set [1] (incubation 1 h 37°C (3 µM; TMR-K9 10 µM), washed, irradiated at 560±20 nm), the “photo-induced endosomal release (photoendosomolytic activity) at 560 nm” value is on record as “release of the fluorescent peptides from endosomes into the cytosol; also recorded: escape of TMR-TAT from endocytic organelles into the cytosol”. Besides, the “light-induced cell death with peptide only extracellular” value in data set [2] is “dramatic cytoplasmic extrusion, membrane blebbing, shrinkage and cell death”. For the same compound, the “penetration into RBCs” value is on record as “does not penetrate RBCs to a large extent” in data set [3] (10 µM in PBS for 1 hour, washed with cold PBS, confocal fluorescence) and “do not penetrate RBCs” in data set [3] (1 to 5 µM).
